Values of other authors, collected in patent US20060100214A1, “Fast dissolving and taste masked oral dosage form comprising sildenafil” (priority 2002, published 2006).

Row | Compound | maximal solubility (at pH2.0) | water solubility (as said in US 20020002172A1)
1 | CCCc1nn(C)c2c(=O)[nH]c(-c3cc(S(=O)(=O)N4CCN(C)CC4)ccc3OCC)nc12.O=C(O)CC(O)(CC(=O)O)C(=O)O [Sildenafil citrate, 1-[[3-(6,7-dihydro-1-methyl-7-oxo-3-propyl-1H-pyrazolo[4,3-d]pyrimidin-5-yl)-4-ethoxyphenyl]sulfonyl]-4-methylpiperazine citrate] | approximately 24 mg/ml | –
2 | CCCc1nn(C)c2c(=O)[nH]c(-c3cc(S(=O)(=O)N4CCN(C)CC4)ccc3OCC)nc12 [sildenafil free base, 1-[[3-(6,7-dihydro-1-methyl-7-oxo-3-propyl-1H-pyrazolo[4,3-d]pyrimidin-5-yl)-4-ethoxyphenyl]sulfonyl]-4-methylpiperazine] | – | very low water solubility
